Experimental data reported in ChEMBL document CHEMBL3046287, “Azoxystrobin resistance of French Mycosphaerella graminicola strains assessed by four in vitro bioassays and by screening of G143A substitution” (Crop Prot, 2010).
Converted amounts (≈) assume the structure as drawn.

Legend:
Type in all cases: functional, organism-based
Zymoseptoria tritici [1] = test: Antifungal activity against azoxystrobin-sensitive Zymoseptoria tritici T0365 carrying cytochrome-b G143 allele assessed as fungal colony perpendicular diameter changes after 10 days at 18 degC by spotting on PDA medium assay; conditions: T0365, 240 h
Zymoseptoria tritici [2] = test: Antifungal activity against azoxystrobin-sensitive Zymoseptoria tritici T0460 carrying cytochrome-b G143 allele assessed as inhibition of spore germination after 2 days at 18 degC by spotting on PDA medium assay; conditions: T0460, 48 h
Zymoseptoria tritici [3] = test: Antifungal activity against azoxystrobin-sensitive Zymoseptoria tritici T0466 carrying cytochrome-b G143 allele assessed as inhibition of spore germination after 2 days at 18 degC by spotting on PDA medium assay; conditions: T0466, 48 h
Zymoseptoria tritici [4] = test: Antifungal activity against azoxystrobin-sensitive Zymoseptoria tritici T0365 carrying cytochrome-b G143 allele assessed as fungal growth inhibition after 6 days at 20 degC by microplate without alamar blue assay; conditions: T0365, 144 h
Zymoseptoria tritici [5] = test: Antifungal activity against azoxystrobin-sensitive Zymoseptoria tritici T0403 carrying cytochrome-b G143 allele assessed as inhibition of spore germination after 2 days at 18 degC by spotting on PDA medium assay; conditions: T0403, 48 h
Zymoseptoria tritici [6] = test: Antifungal activity against azoxystrobin-resistant Zymoseptoria tritici T0242 carrying cytochrome-b A143 allele assessed as fungal colony perpendicular diameter changes after 10 days at 18 degC by spotting on PDA medium assay; conditions: T0242, 240 h
Zymoseptoria tritici [7] = test: Antifungal activity against azoxystrobin-resistant Zymoseptoria tritici T0290 carrying cytochrome-b A143 allele assessed as inhibition of spore germination after 2 days at 18 degC by spotting on PDA medium assay; conditions: T0290, 48 h
Zymoseptoria tritici [8] = test: Antifungal activity against azoxystrobin-resistant Zymoseptoria tritici T0485 carrying cytochrome-b A143 allele assessed as fungal colony perpendicular diameter changes after 10 days at 18 degC by spotting on PDA medium assay; conditions: T0485, 240 h
Zymoseptoria tritici [9] = test: Antifungal activity against azoxystrobin-sensitive Zymoseptoria tritici T0473 carrying cytochrome-b G143 allele assessed as inhibition of spore germination after 2 days at 18 degC by spotting on PDA medium assay; conditions: T0473, 48 h
Zymoseptoria tritici [10] = test: Antifungal activity against azoxystrobin-sensitive Zymoseptoria tritici T0460 carrying cytochrome-b G143 allele assessed as fungal growth inhibition after 6 days at 20 degC by microplate without alamar blue assay; conditions: T0460, 144 h
Zymoseptoria tritici [11] = test: Antifungal activity against azoxystrobin-resistant Zymoseptoria tritici T032 carrying cytochrome-b A143 allele assessed as inhibition of spore germination after 2 days at 18 degC by spotting on PDA medium assay; conditions: T032, 48 h
Zymoseptoria tritici [12] = test: Antifungal activity against azoxystrobin-resistant Zymoseptoria tritici T0293 carrying cytochrome-b A143 allele assessed as inhibition of spore germination after 2 days at 18 degC by spotting on PDA medium assay; conditions: T0293, 48 h
Zymoseptoria tritici [13] = test: Antifungal activity against azoxystrobin-sensitive Zymoseptoria tritici T0213 carrying cytochrome-b G143 allele assessed as fungal growth inhibition after 6 days at 20 degC by microplate without alamar blue assay; conditions: T0213, 144 h
Zymoseptoria tritici [14] = test: Antifungal activity against azoxystrobin-sensitive Zymoseptoria tritici T0278 carrying cytochrome-b G143 allele assessed as fungal growth inhibition after 6 days at 20 degC by microplate without alamar blue assay; conditions: T0278, 144 h
Zymoseptoria tritici [15] = test: Antifungal activity against azoxystrobin-resistant Zymoseptoria tritici T049 carrying cytochrome-b A143 allele assessed as fungal growth inhibition after 6 days at 20 degC by microplate without alamar blue assay; conditions: T049, 144 h
Zymoseptoria tritici [16] = test: Antifungal activity against azoxystrobin-resistant Zymoseptoria tritici T0251 carrying cytochrome-b A143 allele assessed as inhibition of spore germination after 2 days at 18 degC by spotting on PDA medium assay; conditions: T0251, 48 h
Zymoseptoria tritici [17] = test: Antifungal activity against azoxystrobin-sensitive Zymoseptoria tritici IPO323 carrying cytochrome-b G143 allele assessed as fungal colony perpendicular diameter changes after 10 days at 18 degC by spotting on PDA medium assay; conditions: IPO323, 240 h
Zymoseptoria tritici [18] = test: Antifungal activity against azoxystrobin-sensitive Zymoseptoria tritici T0384 carrying cytochrome-b G143 allele assessed as fungal growth inhibition after 6 days at 20 degC by microplate without alamar blue assay; conditions: T0384, 144 h
Zymoseptoria tritici [19] = test: Antifungal activity against azoxystrobin-sensitive Zymoseptoria tritici T0464 carrying cytochrome-b G143 allele assessed as inhibition of spore germination after 2 days at 18 degC by spotting on PDA medium assay; conditions: T0464, 48 h
Zymoseptoria tritici [20] = test: Antifungal activity against azoxystrobin-resistant Zymoseptoria tritici T0345 carrying cytochrome-b A143 allele assessed as fungal growth inhibition after 6 days at 20 degC by microplate without alamar blue assay; conditions: T0345, 144 h
Zymoseptoria tritici [21] = test: Antifungal activity against azoxystrobin-sensitive Zymoseptoria tritici T021 carrying cytochrome-b G143 allele assessed as inhibition of spore germination after 2 days at 18 degC by spotting on PDA medium assay; conditions: T021, 48 h
Zymoseptoria tritici [22] = test: Antifungal activity against azoxystrobin-resistant Zymoseptoria tritici T0293 carrying cytochrome-b A143 allele assessed as fungal growth inhibition after 6 days at 20 degC by microplate without alamar blue assay; conditions: T0293, 144 h
Zymoseptoria tritici [23] = test: Antifungal activity against azoxystrobin-sensitive Zymoseptoria tritici T0466 carrying cytochrome-b G143 allele assessed as fungal growth inhibition after 6 days at 20 degC by microplate without alamar blue assay; conditions: T0466, 144 h
Zymoseptoria tritici [24] = test: Antifungal activity against azoxystrobin-sensitive Zymoseptoria tritici T0471 carrying cytochrome-b G143 allele assessed as fungal colony perpendicular diameter changes after 10 days at 18 degC by spotting on PDA medium assay; conditions: T0471, 240 h
Zymoseptoria tritici [25] = test: Antifungal activity against azoxystrobin-sensitive Zymoseptoria tritici T0473 carrying cytochrome-b G143 allele assessed as fungal growth inhibition after 6 days at 20 degC by microplate without alamar blue assay; conditions: T0473, 144 h
Zymoseptoria tritici [26] = test: Antifungal activity against azoxystrobin-sensitive Zymoseptoria tritici T0468 carrying cytochrome-b G143 allele assessed as fungal colony perpendicular diameter changes after 10 days at 18 degC by spotting on PDA medium assay; conditions: T0468, 240 h
Zymoseptoria tritici [27] = test: Antifungal activity against azoxystrobin-resistant Zymoseptoria tritici T0254 carrying cytochrome-b A143 allele assessed as inhibition of spore germination after 2 days at 18 degC by spotting on PDA medium assay; conditions: T0254, 48 h
Zymoseptoria tritici [28] = test: Antifungal activity against azoxystrobin-sensitive Zymoseptoria tritici T0464 carrying cytochrome-b G143 allele assessed as fungal growth inhibition after 6 days at 20 degC by microplate without alamar blue assay; conditions: T0464, 144 h
Zymoseptoria tritici [29] = test: Antifungal activity against azoxystrobin-sensitive Zymoseptoria tritici T0464 carrying cytochrome-b G143 allele assessed as fungal colony perpendicular diameter changes after 10 days at 18 degC by spotting on PDA medium assay; conditions: T0464, 240 h
Zymoseptoria tritici [30] = test: Antifungal activity against azoxystrobin-resistant Zymoseptoria tritici T055 carrying cytochrome-b A143 allele assessed as inhibition of spore germination after 2 days at 18 degC by spotting on PDA medium assay; conditions: T055, 48 h

CO/C=C(/C(=O)OC)c1ccccc1Oc1cc(Oc2ccccc2C#N)ncn1 [AZOXYSTROBIN]
IC50 (Zymoseptoria tritici [1]): 0.11 µg/mL (≈ 0.273 µM) | IC50 (Zymoseptoria tritici [2]): 0.13 µg/mL (≈ 0.322 µM) | IC50 (Zymoseptoria tritici [3]): 0.94 µg/mL (≈ 2.33 µM) | IC50 (Zymoseptoria tritici [4]): 0.16 µg/mL (≈ 0.397 µM) | IC50 (Zymoseptoria tritici [5]): < 0.01 µg/mL | IC50 (Zymoseptoria tritici [6]): 12 µg/mL (≈ 29.7 µM) | IC50 (Zymoseptoria tritici [7]): 20.1 µg/mL (≈ 49.8 µM) | IC50 (Zymoseptoria tritici [8]): 10.6 µg/mL (≈ 26.2 µM) | IC50 (Zymoseptoria tritici [9]): 0.05 µg/mL (≈ 0.124 µM) | IC50 (Zymoseptoria tritici [10]): 0.03 µg/mL (≈ 0.0744 µM) | IC50 (Zymoseptoria tritici [11]): 11.6 µg/mL (≈ 28.7 µM) | IC50 (Zymoseptoria tritici [12]): 11.4 µg/mL (≈ 28.2 µM) | IC50 (Zymoseptoria tritici [13]): 0.03 µg/mL (≈ 0.0744 µM) | IC50 (Zymoseptoria tritici [14]): 0.04 µg/mL (≈ 0.0992 µM) | IC50 (Zymoseptoria tritici [15]): > 100 µg/mL | IC50 (Zymoseptoria tritici [16]): 34.1 µg/mL (≈ 84.7 µM) | IC50 (Zymoseptoria tritici [17]): 0.03 µg/mL (≈ 0.0744 µM) | IC50 (Zymoseptoria tritici [18]): 0.06 µg/mL (≈ 0.149 µM) | IC50 (Zymoseptoria tritici [19]): 0.22 µg/mL (≈ 0.545 µM) | IC50 (Zymoseptoria tritici [20]): > 100 µg/mL | IC50 (Zymoseptoria tritici [21]): 0.21 µg/mL (≈ 0.521 µM) | IC50 (Zymoseptoria tritici [22]): > 100 µg/mL | IC50 (Zymoseptoria tritici [23]): < 0.01 µg/mL | IC50 (Zymoseptoria tritici [24]): 0.1 µg/mL (≈ 0.248 µM) | IC50 (Zymoseptoria tritici [25]): 0.01 µg/mL (≈ 0.0248 µM) | IC50 (Zymoseptoria tritici [26]): 0.23 µg/mL (≈ 0.57 µM) | IC50 (Zymoseptoria tritici [27]): 7.17 µg/mL (≈ 17.8 µM) | IC50 (Zymoseptoria tritici [28]): < 0.01 µg/mL | IC50 (Zymoseptoria tritici [29]): 0.25 µg/mL (≈ 0.62 µM) | IC50 (Zymoseptoria tritici [30]): 15.6 µg/mL (≈ 38.6 µM)
